The cell lines below were run with CO[C@@H]1[C@H](N(C)C(=O)c2ccccc2)C[C@H]2O[C@]1(C)n1c3ccccc3c3c4c(c5c6ccccc6n2c5c31)C(=O)NC4 [Midostaurin] + Cc1cc(Nc2cc(N3CCN(C)CC3)nc(Sc3ccc(NC(=O)C4CC4)cc3)n2)n[nH]1 [Tozasertib] (partner 0.1 µM) (assay: relative viability (nuclei count vs DMSO), 5 days (fraction); higher = more cells survive). Settings: first compound 0.03162 µM.
In short: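 Each reported value is a median over duplicate plates. It expresses relative viability: treated-well nuclei count divided by vehicle-well nuclei count. Lung cancer cell lines in 1536-well plates were dosed by pin tool a day after seeding, alone with one drug or with a fixed anchor-drug dose plus five library-drug doses (not always all listed) in √10 steps, and nuclei were counted after 5 days.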

| Cell Line | relative viability |
| --- | --- |
| NCI-H1734 | 0.276 |
| NCI-H460 | 0.492 |
| NCI-H2347 | 0.553 |
| SK-LU-1 | 0.449 |
| NCI-H1395 | 0.785 |
| 201T | 0.913 |
| NCI-H1915 | 0.435 |
| HCC-827 | 0.352 |
| LXF-289 | 0.23 |
| NCI-H23 | 0.575 |
| NCI-H647 | 0.35 |
| CAL-12T | 0.27 |
| NCI-H1651 | 0.752 |
| NCI-H2228 | 0.284 |
| NCI-H1355 | 0.632 |

Same assay, conditions: first compound 0.1 µM

| Cell Line | relative viability |
| --- | --- |
| COR-L 105 | 0.341 |
| LOU-NH91 | 0.653 |
| NCI-H2170 | 0.729 |
| NCI-H2405 | 0.742 |
| HOP-62 | 0.303 |
| LU99A | 0.259 |
| BEN | 0.401 |
| HARA | 0.0946 |
| HCC-78 | 0.408 |
| NCI-H322M | 0.481 |
| LCLC-97TM1 | 0.247 |
| NCI-H2009 | 0.563 |
| A-427 | 0.193 |
| NCI-H441 | 0.564 |
| NCI-H1734 | 0.294 |
| NCI-H460 | 0.44 |
| NCI-H2347 | 0.616 |
| SK-LU-1 | 0.278 |
| NCI-H1395 | 0.708 |
| 201T | 0.915 |
| NCI-H1915 | 0.404 |
| HCC-827 | 0.4 |
| LXF-289 | 0.178 |
| NCI-H23 | 0.348 |
| NCI-H647 | 0.293 |
| CAL-12T | 0.266 |
| NCI-H1651 | 0.543 |
| EPLC-272H | 0.186 |
| NCI-H2228 | 0.265 |
| NCI-H1355 | 0.597 |

Same assay, conditions: first compound 0.3162 µM

| Cell Line | relative viability |
| --- | --- |
| COR-L 105 | 0.313 |
| LOU-NH91 | 0.642 |
| NCI-H2170 | 0.621 |
| NCI-H2405 | 0.585 |
| HOP-62 | 0.321 |
| LU99A | 0.244 |
| BEN | 0.459 |
| HARA | 0.0968 |
| HCC-78 | 0.366 |
| NCI-H322M | 0.544 |
| LCLC-97TM1 | 0.257 |
| NCI-H2009 | 0.426 |
| A-427 | 0.172 |
| NCI-H441 | 0.401 |
| NCI-H1734 | 0.267 |
| NCI-H460 | 0.415 |
| NCI-H2347 | 0.506 |
| SK-LU-1 | 0.202 |
| NCI-H1395 | 0.769 |
| 201T | 0.891 |
| NCI-H1915 | 0.412 |
| HCC-827 | 0.416 |
| LXF-289 | 0.176 |
| NCI-H23 | 0.259 |
| NCI-H647 | 0.18 |
| CAL-12T | 0.215 |
| NCI-H1651 | 0.685 |
| EPLC-272H | 0.311 |
| NCI-H2228 | 0.216 |
| NCI-H1355 | 0.475 |
